Earlier results on 3 compounds are cited in patent US9351995B1, “Compositions and methods of enhancing wound healing” (RED OAX HOLDINGS, LLC, priority 2011, dated 2016).

SMILES strings stand for the structures.

One data set concerns fibroblast. The following applies: cited from earlier work.
In data set [1] the test system is human surface respiratory epithelium. The following applies: cited from earlier work.

Regarding `[Br-].[Br-].[Mg+2]` [MgBr2], the fibroblast outgrowth entry in the data set with fibroblast was “inhibitory effects on fibroblast outgrowth”.
Turning to `COc1cc2c(c(OC)c1OC)-c1ccc(OC)c(=O)cc1[C@@H](NC(C)=O)CC2` [colchicine], the “effect on repair of small-size injuries” value in data set [1] is recorded as “did not interrupt the repair process”.
For the compound `C=C1[C@@H](C)[C@H]2[C@H](Cc3ccccc3)NC(=O)[C@]23OC(=O)/C=C/[C@H](O)CCC[C@@H](C)C/C=C/[C@H]3[C@@H]1O` [cytochalasin B], the “effect on repair of small-size injuries” value in data set [1] is on record as “prevented cell migration”.
